Source: PubChem BioAssay (NCI)
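Briefly, cells in 96-well plates were exposed to five compound concentrations for 48 h, and endpoints were estimated by linear interpolation. TGI denotes the concentration required for complete inhibition of growth.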

Experiments:
Experiment in all cases: growth of human tumour cells (NCI), 48 h
[1] = tested on: TK-10 renal
[2] = tested on: OVCAR-8 ovarian
[3] = tested on: IGROV1 ovarian
[4] = tested on: CCRF-CEM leukemia
[5] = tested on: SF-295 CNS
[6] = tested on: OVCAR-5 ovarian
[7] = tested on: LXFL 529 NSCLC
[8] = tested on: NCI-H226 lung
[9] = tested on: HCC-2998 colon
[10] = tested on: A549 NSCLC
[11] = tested on: SK-OV-3 ovarian
[12] = tested on: CAKI-1 renal
[13] = tested on: HOP-92 NSCLC
[14] = tested on: MALME-3M melanoma
[15] = tested on: RXF 393 renal
[16] = tested on: NCI-H460 lung
[17] = tested on: NCI-H522 lung
[18] = tested on: OVCAR-4 ovarian
[19] = tested on: HCT-15 colon
[20] = tested on: M19-MEL melanoma
[21] = tested on: SNB-75 CNS
[22] = tested on: SF-268 CNS
[23] = tested on: SF-539 CNS
[24] = tested on: MOLT-4 leukemia
[25] = tested on: XF 498 CNS
[26] = tested on: A498 renal
[27] = tested on: KM12 colon
[28] = tested on: SK-MEL-5 melanoma
[29] = tested on: K-562 leukemia
[30] = tested on: HCT-116 colon
[31] = tested on: SR leukemia
[32] = tested on: HOP-62 NSCLC
[33] = tested on: DMS 114 small cell lung
[34] = tested on: UACC-62 melanoma
[35] = tested on: SW-620 colon
[36] = tested on: HL-60(TB) leukemia
[37] = tested on: UO-31 renal
[38] = tested on: U251 CNS
[39] = tested on: UACC-257 melanoma
[40] = tested on: DLD-1 colon
[41] = tested on: 786-0 renal
[42] = tested on: HT29 colon
[43] = tested on: SK-MEL-2 melanoma
[44] = tested on: M14 melanoma
[45] = tested on: NCI-H23 lung
[46] = tested on: COLO 205 colon
[47] = tested on: RPMI-8226 leukemia
[48] = tested on: ACHN renal
[49] = tested on: SK-MEL-28 melanoma
[50] = tested on: KM20L2 colon
[51] = tested on: EKVX NSCLC
[52] = tested on: LOX IMVI melanoma
[53] = tested on: DMS 273 small cell lung
[54] = tested on: SN12C renal
[55] = tested on: SNB-19 CNS
[56] = tested on: OVCAR-3 ovarian
[57] = tested on: HOP-18 NSCLC

`O=C(CC(=O)n1nc(-c2ccccc2)c(N=Nc2ccccc2Cl)c1-c1ccccc1)Nc1ccc(Cl)cc1` was tested, and the TGI [1] was > 100 µM, the TGI [2] was > 100 µM and the TGI [3] was > 100 µM. For the same compound, the TGI [4] was > 68.5 µM, the TGI [5] was > 100 µM and the TGI [6] was > 100 µM. The TGI [7] was > 100 µM, the TGI [8] was > 100 µM and the TGI [9] was > 100 µM. For the same compound, the TGI [10] was > 79.8 µM, the TGI [11] was > 100 µM and the TGI [12] was > 100 µM. The TGI [13] was > 100 µM, the TGI [14] was > 100 µM and the TGI [15] was > 100 µM. The TGI [16] was > 78.2 µM, the TGI [17] was > 100 µM and the TGI [18] was > 100 µM. For the same compound, the TGI [19] was > 59.9 µM, the TGI [20] was 45.7 µM and the TGI [21] was > 100 µM. The TGI [22] was > 100 µM, the TGI [23] was > 100 µM and the TGI [24] was > 100 µM. The TGI [25] was > 100 µM, the TGI [26] was > 100 µM and the TGI [27] was > 100 µM. For the same compound, the TGI [28] was > 100 µM, the TGI [29] was > 85.8 µM and the TGI [30] was > 55.8 µM. For the same compound, the TGI [31] was > 100 µM, the TGI [32] was > 100 µM and the TGI [33] was > 56.6 µM. The TGI [34] was > 100 µM, the TGI [35] was > 74 µM and the TGI [36] was > 60.5 µM. The TGI [37] was > 100 µM, the TGI [38] was > 55.6 µM and the TGI [39] was > 100 µM. The TGI [40] was > 65.2 µM, the TGI [41] was > 83.4 µM and the TGI [42] was > 89.5 µM. For the same compound, the TGI [43] was > 100 µM, the TGI [44] was > 100 µM and the TGI [45] was > 100 µM. The TGI [46] was > 64 µM, the TGI [47] was > 66.1 µM and the TGI [48] was > 100 µM. For the same compound, the TGI [49] was > 100 µM, the TGI [50] was > 100 µM and the TGI [51] was > 100 µM. The TGI [52] was > 59.7 µM, the TGI [53] was > 100 µM and the TGI [54] was > 100 µM. For the same compound, the TGI [55] was > 100 µM, the TGI [56] was > 100 µM and the TGI [57] was > 100 µM.
For `O=C1CC[C@H](NC(=O)Cc2ccccc2)C(=O)N1`, the TGI [1] was > 1250 µM, the TGI [2] was > 1250 µM and the TGI [3] was > 1250 µM. The TGI [4] was > 1250 µM, the TGI [5] was > 1250 µM and the TGI [6] was > 1250 µM. The TGI [7] was > 1250 µM, the TGI [8] was > 1250 µM and the TGI [9] was > 1250 µM. For the same compound, the TGI [10] was > 1250 µM, the TGI [11] was > 1250 µM and the TGI [12] was > 1250 µM. For the same compound, the TGI [14] was > 1250 µM, the TGI [15] was > 1250 µM and the TGI [16] was > 1250 µM. For the same compound, the TGI [17] was > 1250 µM, the TGI [18] was > 1250 µM and the TGI [19] was > 1250 µM. The TGI [20] was > 1250 µM, the TGI [21] was > 1250 µM and the TGI [22] was > 1250 µM. For the same compound, the TGI [23] was > 1250 µM, the TGI [24] was > 1250 µM and the TGI [25] was > 1250 µM. For the same compound, the TGI [27] was > 1250 µM, the TGI [29] was > 1250 µM and the TGI [30] was > 1250 µM. The TGI [31] was > 1250 µM, the TGI [32] was > 1250 µM and the TGI [34] was > 1250 µM. For the same compound, the TGI [35] was > 1250 µM, the TGI [36] was > 1250 µM and the TGI [37] was > 1250 µM. For the same compound, the TGI [38] was > 1250 µM, the TGI [39] was > 1250 µM and the TGI [40] was > 1250 µM. For the same compound, the TGI [41] was > 1250 µM, the TGI [42] was > 1250 µM and the TGI [43] was > 1250 µM. For the same compound, the TGI [44] was > 1250 µM, the TGI [45] was > 1250 µM and the TGI [46] was > 1250 µM. For the same compound, the TGI [47] was > 1250 µM, the TGI [48] was > 1250 µM and the TGI [49] was > 1250 µM. The TGI [50] was > 1250 µM, the TGI [51] was > 1250 µM and the TGI [52] was > 1250 µM. The TGI [53] was > 1250 µM, the TGI [54] was > 1250 µM and the TGI [55] was > 1250 µM. For the same compound, the TGI [57] was > 1250 µM.
